Results as given in patent publication US20070128217A1 (priority 2003, published 2007).

Columns and labels:
[1] = tested on: recombinant human anti-SARS-CoV antibody 03-018; type: binding; design: Binding of antibody 03-018 to linear peptides of the N protein of SARS-CoV Urbani / Binding of antibody 03-018 to looped/cyclic peptides of the N protein of SARS-CoV Urbani: unit not given here
[2] = tested on: rabbit serum obtained by immunizing a rabbit with the SARS-CoV strain Frankfurt 1; type: binding; design: Binding of a rabbit serum to linear peptides / Binding of a rabbit serum to looped peptides / Rabbit serum linear peptides / Rabbit serum looped peptides / Binding of a rabbit serum to linear peptides of protein N of SARS-CoV Urbani (Rabbit serum linear peptides) / Binding of a rabbit serum to looped/cyclic peptides of protein N of SARS-CoV Urbani (Rabbit serum looped peptides): unit not given here
[3] = tested on: control sera (pooled serum of ten healthy LUMC hospital workers; commercial negative donor pooled serum from the Dutch bloodbank); type: binding, human; design: Binding of Control serum LUMC to linear peptides / Binding of Control serum Blood-bank to linear peptides / Binding of Control serum LUMC to looped peptides / Binding of Control Serum Blood-Bank to Looped peptides / Binding of Control serum LUMC to linear peptides of the protein M of SARS-CoV Urbani / Binding of Control serum Blood-bank to linear peptides of the protein M of SARS-CoV Urbani / Binding of Control serum LUMC to looped peptides of the protein M of SARS-CoV Urbani / Binding of Control Serum Blood-Bank to Looped peptides of the protein M of SARS-CoV Urbani: unit not given here
[4] = tested on: antibodies in sera from SARS patients (sera 1a, 1b, 2, 6, 37, 62, London, SARS-yellow, SARS-green); type: binding, human; design: Binding of serum 6 to linear peptides of protein X1 of SARS-CoV Urbani / Binding of serum 37 to linear peptides of protein X1 of SARS-CoV Urbani / Binding of serum 6 to looped/cyclic peptide (PEPSCAN-ELISA) / Binding of serum 37 to looped/cyclic peptide (PEPSCAN-ELISA) / Binding of serum 37 to looped/cyclic peptides of protein X1 of SARS-CoV Urbani / Binding of serum 6 to linear peptides of protein X2 / Binding of serum 37 to linear peptides of protein X2 / Binding of serum 37 to looped/cyclic peptides of protein X2 of SARS-CoV Urbani / Binding of serum 6 to linear peptides of protein M of SARS-CoV Urbani / Binding of serum 37 to linear peptides of protein M of SARS-CoV Urbani / Binding of serum 6 to looped/cyclic peptides of protein M of SARS-CoV Urbani / Binding of serum 37 to looped/cyclic peptides of protein M of SARS-CoV Urbani / Binding of serum 6 to linear peptides of protein X3 of SARS-CoV Urbani / Binding of serum 37 to linear peptides of protein X3 of SARS-CoV Urbani / Binding of serum 37 to looped/cyclic peptides of protein X3 of SARS-CoV Urbani / Binding of serum 6 to linear peptides of protein X4 of SARS-CoV Urbani / Binding of serum 37 to linear peptides of protein X4 of SARS-CoV Urbani / Binding of serum 37 to looped/cyclic peptides of protein X4 of SARS-CoV Urbani / Binding of serum 6 to linear peptides of protein X5 of SARS-CoV Urbani / Binding of serum 37 to linear peptides of protein X5 of SARS-CoV Urbani / Binding of serum 37 to looped/cyclic peptides of protein X5 of SARS-CoV Urbani / Binding of serum 6 to linear peptides of protein N of SARS-CoV Urbani / Binding of serum 37 to linear peptides of protein N of SARS-CoV Urbani / Binding of serum 6 to linear peptide (PEPSCAN-ELISA) / Binding of serum 1a to looped/cyclic peptides of protein N of SARS-CoV Urbani / Binding of serum 1b to looped/cyclic peptides of protein N of SARS-CoV Urbani / Binding of serum 2 to looped/cyclic peptides of protein N of SARS-CoV Urbani / Binding of serum 6 to looped/cyclic peptides of protein N of SARS-CoV Urbani / Binding of serum 37 to looped/cyclic peptides of protein N of SARS-CoV Urbani / Binding of serum 62 to looped/cyclic peptides of protein N of SARS-CoV Urbani / Binding of serum London to looped/cyclic peptides of protein N of SARS-CoV Urbani / Binding of serum SARS-green to looped/cyclic peptides of protein N of SARS-CoV Urbani: unit not given here

| Sequence | Binding of antibody 03-018 to linear peptides of the N protein of SARS-CoV Urbani [1] | Binding of antibody 03-018 to looped/cyclic peptides of the N protein of SARS-CoV Urbani [1] | Binding of a rabbit serum to linear peptides of protein N of SARS-CoV Urbani (Rabbit serum linear peptides) [2] | Binding of a rabbit serum to looped/cyclic peptides of protein N of SARS-CoV Urbani (Rabbit serum looped peptides) [2] | Binding of Control Serum Blood-Bank to Looped peptides [3] | Binding of Control serum Blood-bank to linear peptides [3] | Binding of Control serum LUMC to linear peptides [3] | Binding of Control serum LUMC to looped peptides [3] | Binding of serum 1a to linear peptides of protein N of SARS-CoV Urbani [4] | Binding of serum 1a to looped/cyclic peptides of protein N of SARS-CoV Urbani [4] | Binding of serum 1b to linear peptides of protein N of SARS-CoV Urbani [4] | Binding of serum 1b to looped/cyclic peptides of protein N of SARS-CoV Urbani [4] | Binding of serum 2 to linear peptides of protein N of SARS-CoV Urbani [4] | Binding of serum 2 to looped/cyclic peptides of protein N of SARS-CoV Urbani [4] | Binding of serum 6 to looped/cyclic peptides of protein N of SARS-CoV Urbani [4] | Binding of serum 37 to looped/cyclic peptides of protein N of SARS-CoV Urbani [4] | Binding of serum 62 to looped/cyclic peptides of protein N of SARS-CoV Urbani [4] | Binding of serum London to looped/cyclic peptides of protein N of SARS-CoV Urbani [4] | Binding of serum SARS-green to looped/cyclic peptides of protein N of SARS-CoV Urbani [4] | Binding of serum SARS-yellow to looped/cyclic peptides of protein N of SARS-CoV Urbani [4] | further results |
| --- | --- | --- | --- | --- | --- | --- | --- | --- | --- | --- | --- | --- | --- | --- | --- | --- | --- | --- | --- | --- | --- |
| RRPQGLPNNTASWFT | 0.1 | 0.2 | 0.1 | 0.4 | 0.7 | 0.5 | 0.7 | 0.6 | 0.2 | 0.4 | 0.1 | 0.3 | 0.1 | 0.5 | 0.3 | 0.6 | 0.5 | 0.4 | 0.6 | 0.5 | Binding of serum 6 to linear peptides of protein N of SARS-CoV Urbani [4]: 0.1; Binding of serum 37 to linear peptides of protein N of SARS-CoV Urbani [4]: 0.6; Binding of serum 62 to linear peptides of protein N of SARS-CoV Urbani [4]: 0.6; Binding of serum London to linear peptides of protein N of SARS-CoV Urbani [4]: 0.4; Binding of serum SARS-green to linear peptides of protein N of SARS-CoV Urbani [4]: 0.2; Binding of serum SARS-yellow to linear peptides of protein N of SARS-CoV Urbani [4]: 0.6 |
| NKEGIVWVATEGALN | 0.1 | 0.2 | 0.1 | 0.2 | 0.6 | 0.7 | 0.7 | 0.6 | 0.3 | 0.3 | 0.1 | 0.2 | 0.2 | 0.4 | 0.2 | 0.6 | 0.4 | 0.3 | 0.3 | 0.4 | Binding of serum 6 to linear peptides of protein N of SARS-CoV Urbani [4]: 0.2; Binding of serum 37 to linear peptides of protein N of SARS-CoV Urbani [4]: 0.7; Binding of serum 62 to linear peptides of protein N of SARS-CoV Urbani [4]: 0.6; Binding of serum London to linear peptides of protein N of SARS-CoV Urbani [4]: 0.4; Binding of serum SARS-green to linear peptides of protein N of SARS-CoV Urbani [4]: 0.4; Binding of serum SARS-yellow to linear peptides of protein N of SARS-CoV Urbani [4]: 0.9 |
| APRITFGGPTDSTDN | – | – | 0.2 | 0.6 | 0.6 | 0.6 | 0.5 | 0.6 | 0.2 | 0.4 | 0.2 | 0.2 | 0.2 | 0.3 | 0.2 | 0.6 | 0.6 | 0.2 | 0.6 | 0.4 | Recognition of the peptide by antibody 03-018 [1]: recognized; Binding of serum 6 to linear peptides of protein N of SARS-CoV Urbani [4]: 0.2; Binding of serum 37 to linear peptides of protein N of SARS-CoV Urbani [4]: 0.8; Binding of serum 62 to linear peptides of protein N of SARS-CoV Urbani [4]: 0.7; Binding of serum London to linear peptides of protein N of SARS-CoV Urbani [4]: 0.6; Binding of serum SARS-green to linear peptides of protein N of SARS-CoV Urbani [4]: 0.6; Binding of serum SARS-yellow to linear peptides of protein N of SARS-CoV Urbani [4]: 0.3 |
| ETALALLLLDRLNQL | 0.1 | 0.3 | 0.4 | 0.6 | 0.8 | 0.5 | 0.5 | 0.7 | – | 0.4 | – | 0.3 | – | 0.4 | 0.2 | 0.7 | 0.6 | 0.5 | 0.4 | 0.5 | Binding of serum 1a to linear peptide (PEPSCAN-ELISA) [4]: 0.2; Binding of serum 1b to linear peptide (PEPSCAN-ELISA) [4]: 0.1; Binding of serum 2 to linear peptide (PEPSCAN-ELISA) [4]: 0.1; Binding of serum 6 to linear peptide (PEPSCAN-ELISA) [4]: 0.1; Binding of serum 37 to linear peptide (PEPSCAN-ELISA) [4]: 0.6; Binding of serum 62 to linear peptide (PEPSCAN-ELISA) [4]: 0.4; Binding of serum London to linear peptide (PEPSCAN-ELISA) [4]: 0.5; Binding of serum SARS-green to linear peptide (PEPSCAN-ELISA) [4]: 0.3; Binding of serum SARS-yellow to linear peptide (PEPSCAN-ELISA) [4]: 0.5 |
